According to US4321265A, “7α-Methoxycephalosporins” (Toyama Chemical Co., Ltd., priority 1977, dated 1982):
pIC50: −log10 of the molar value. In brackets after ≈: the same amount, converted by molar mass. Like-named read-outs stand apart in the source and are kept apart here.

Legend:
[1] = test system: S. marcescens W-35; assay: Infection-protective activity in mice; format: in vivo, ICR-strain mice (male); details: subcutaneous, one hour after intraperitoneal inoculation; challenge dose 2.5 × 10^5 cells/mouse; ICR mice
Source text: Four-week old ICR-strain mice (male) in groups, each group consisting of five mice, were inoculated intraperitoneally with a prescribed quantity of a pathogenic bacterium suspended in 5% mucin. After one hour from the inoculation, the mice were subcutaneously administered with the test preparation to determine the infection-protective activity. The figures in Table 4 represent the protective activity in terms of ED50.

[2] = target: T1, β-lactamase (cephalosporinase, E. coli GN-5482) (Escherichia coli, UniProt P00811); assay: Inhibitory dose to β-lactamase, iodometric method of Perret, Cefazolin as substrate; format: biochemical
T1 construct: producing bacteria; endogenous in cells; host or cells: E. coli GN-5482

[3] = test system: Ser. marcescens W-35; assay: Minimum inhibitory concentration (MIC), Heart Infusion agar; format: cell-based; details: Serratia marcescens, W35, 20 h, S. marcescens W-35, read-out: MIC
Procedure: Antibacterial activities of the representative compounds (Ib) of the 7α-methoxycephalosporins according to this invention are shown in Table 1. [drawing 20]
The figures given in Table 1 represent the minimum inhibitory concentration (MIC in mcg/ml) of each compound, which was determined according to the method described in "Chemotherapy (Society of Chemotherapy, Japan), Vol. 16, 98-99 (1968)": A culture obtained by cultivating the test bacterium in a Heart Infusion broth (Eiken Kagaku Co.) was inoculated into a Heart Infusion agar medium (Eiken Kagaku Co.). After 20 hours of the incubation at 37° C., the growth of the bacterium was inspected to determine the minimum inhibitory concentration (MIC in mcg/ml). […]
(1) Minimum inhibitory concentration (MIC in mcg/ml).

[4] = target: T2, β-lactamase (cephalosporinase, S. marcescens W-8) (Serratia marcescens, UniProt P18539); assay: Inhibitory dose to β-lactamase, iodometric method of Perret, Cefazolin as substrate; format: biochemical; details: read-out: Inhibitory dose to β-lactamase (ID50) (converted)
T2 construct: producing bacteria; endogenous in cells; host or cells: S. marcescens W-8

[5] = target: T3, β-lactamase (cephalosporinase, C. freundii GN-346) (Citrobacter freundii, UniProt P05193); assay: as above; format: biochemical; details: read-out: Inhibitory dose to β-lactamase (ID50) (converted)
T3 construct: producing bacteria; endogenous in cells; host or cells: C. freundii GN-346

[6] = Toxicity (LD50); details: mouse, in vivo; ICR-strain mice; intravenous
Source text: The 7α-methoxycephalosporins of this invention are low-toxic.

[7] = test system: Penicillinase (E. coli TK-3); assay: Stability to β-lactamase, iodometry (Perret); format: biochemical; details: E. coli TK-3 penicillinase; PCG = 100; 30° C., pH 7.0
Procedure: (§1) The stability to β-lactamase was examined by iodometry at 30° C. by the method of Perret (Perret, C. J., "Iodometric assay of penicillinase", Nature, 174, 1012-1013 (1954)), except that a 0.1 M phosphate buffer solution (pH 7.0) was used in place of the 0.2 M phosphate buffer solution (pH 6.5). The stability of each compound was shown in Table 2 in terms of relative degree of hydrolysis, assuming the stability of Cephaloridin (CER) to cephalosporinase as 100 and the stability of Penicillin G (PCG) to penicillinase as 100.

[8] = target: T4, Cephalosporinase (S. marcescens W-8) (Serratia marcescens, UniProt P18539); assay: Stability to β-lactamase, iodometry (Perret); format: biochemical; details: S. marcescens W-8 cephalosporinase; CER = 100; 30° C., pH 7.0
T4 construct: native preparation, details not in excerpts
Procedure: as §1

[9] = target: T5, Cephalosporinase (E. coli GN-5482) (Escherichia coli, UniProt P00811); assay: Stability to β-lactamase, iodometry (Perret); format: biochemical; details: E. coli GN-5482 cephalosporinase; CER = 100; 30° C., pH 7.0
T5 construct: native preparation, details not in excerpts
Procedure: as §1

[10] = test system: Penicillinase (K. pneumoniae Y-4); assay: Stability to β-lactamase, iodometry (Perret); format: biochemical; details: K. pneumoniae Y-4 penicillinase; PCG = 100; 30° C., pH 7.0
Procedure: as §1

[11] = test system: Penicillinase (P. aeruginosa GN-3379); assay: Stability to β-lactamase, iodometry (Perret); format: biochemical; details: P. aeruginosa GN-3379 penicillinase; PCG = 100; 30° C., pH 7.0
Procedure: as §1

T3 sequence (P05193 21-381): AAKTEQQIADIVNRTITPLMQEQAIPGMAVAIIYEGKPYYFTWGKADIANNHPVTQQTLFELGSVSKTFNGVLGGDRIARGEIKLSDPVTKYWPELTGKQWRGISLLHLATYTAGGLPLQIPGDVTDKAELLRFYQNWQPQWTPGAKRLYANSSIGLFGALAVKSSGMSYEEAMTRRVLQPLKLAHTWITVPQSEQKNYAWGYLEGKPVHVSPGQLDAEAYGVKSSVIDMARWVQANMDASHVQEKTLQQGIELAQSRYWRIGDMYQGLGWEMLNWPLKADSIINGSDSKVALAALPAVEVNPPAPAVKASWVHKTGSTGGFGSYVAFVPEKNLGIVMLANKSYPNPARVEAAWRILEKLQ
T1 sequence (P00811 20-377): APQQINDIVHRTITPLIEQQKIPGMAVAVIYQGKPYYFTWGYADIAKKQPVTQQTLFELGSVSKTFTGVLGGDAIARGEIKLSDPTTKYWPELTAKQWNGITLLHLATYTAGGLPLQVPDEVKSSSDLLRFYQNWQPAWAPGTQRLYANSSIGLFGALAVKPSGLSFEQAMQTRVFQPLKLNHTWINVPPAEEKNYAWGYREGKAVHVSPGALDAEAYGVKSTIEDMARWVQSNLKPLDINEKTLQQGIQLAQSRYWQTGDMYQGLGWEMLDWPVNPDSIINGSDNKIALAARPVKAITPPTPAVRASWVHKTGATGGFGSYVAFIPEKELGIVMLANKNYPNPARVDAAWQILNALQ
T5 sequence (P00811 20-377): as above
T4 sequence (P18539 22-376): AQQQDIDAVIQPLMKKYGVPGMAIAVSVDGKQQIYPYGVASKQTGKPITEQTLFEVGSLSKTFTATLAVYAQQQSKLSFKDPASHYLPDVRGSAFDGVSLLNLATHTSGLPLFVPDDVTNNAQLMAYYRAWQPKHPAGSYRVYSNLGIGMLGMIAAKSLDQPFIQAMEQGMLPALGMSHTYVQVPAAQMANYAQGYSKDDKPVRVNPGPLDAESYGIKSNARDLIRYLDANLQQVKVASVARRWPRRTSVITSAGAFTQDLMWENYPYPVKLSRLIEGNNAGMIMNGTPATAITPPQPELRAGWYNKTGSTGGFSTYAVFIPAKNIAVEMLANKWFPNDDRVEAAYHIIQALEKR
T2 sequence (P18539 22-376): as above

CCN1CCN(C(=O)NC(C(=O)N[C@]2(OC)C(=O)N3C(C(=O)O)=C(CSc4nnnn4C)CS[C@@H]32)c2cccs2)C(=O)C1=O (stereo partly drawn) [Example T-1414]
ED50 (infection-protective activity) [1]: 0.84 mg/mouse
pIC50 [2]: 5.91
MIC ([3]; inoculated bacteria quantity 10^6 cells/ml (Table 4)): 6.25 µg/mL (≈ 9.39 µM)
MIC ([3]; inoculated bacteria quantity 10^8 cells/ml (Table 4)): 12.5 µg/mL (≈ 18.8 µM)
IC50 [4]: 0.811 µM
IC50 [5]: 2.55 µM
LD50 [6]: ≥ 5000 mg/kg
Stability to β-lactamase, relative degree of hydrolysis [7]: < 0.003
Stability to β-lactamase, relative degree of hydrolysis [8]: 0.02
Stability to β-lactamase, relative degree of hydrolysis [9]: < 0.1
Stability to β-lactamase, relative degree of hydrolysis [10]: < 0.09
Stability to β-lactamase, relative degree of hydrolysis [11]: 0.03
